Results published in US4701441A, “Methods and compositions for stimulation of appetite” (University of Florida, priority 1985, dated 1987).
Where two headings read alike, the source gives them in different places. Ends that are not written are not given here.

Columns and labels:
[1] = system: estradiol benzoate-progesterone-treated ovariectomized rats; experiment: Ingestive behavior noticed after ivt hPP during LH release studies; assay type: in vivo, rat; conditions: intraventricular (ivt) administration
Source text: 251; Morley et al (1973), Neurosci. Biobehav. Revs. 7: 281]. Recently, Tatemoto, Proc. Natl. Acad. Sci. USA. […] The detailed distribution pattern of neurons displaying NPY-like immunoreactivity in the rat brain has been described [Allen et al (1983), Science 221:877; Allen et al (1983), 13th Ann. Mtg. Soc. Neurosci. 9:291 (Abstr.); O'Donohue et al (1983), 13th Ann. Mtg. Soc. Neurosci. 9:290 (Abstr.)]. The physiological significance of NPY-like immunoreactivity in the rat brain is presently unknown.

[2] = system: ovariectomized rats pretreated with estradiol benzoate plus progesterone; experiment: Food intake and ingestive behavior after two ivt injections, Example 1; assay type: in vivo, rat
Procedure: Adult female rats (CRL:CD® (SD)BR, Charles River Breeding Labs, Wilmington, MA) were maintained in individual wire bottom cages under controlled temperature and light (lights on 0500-1900 h) with ad libitum access to food and water. Rats were ovariectomized and permanent cannulae were implanted in the third cerebral ventricle under pentobarbital anesthesia (40 mg/kg, […]). Eleven to 13 days after surgery, rats were treated with estradiol benzoate (30 μg in 0.1 ml sesame oil, sc) and progesterone (15 mg in 0.3 ml sesame oil, sc). Two days later […], food and water were removed and patency of the ivt cannula was checked by observing efflux of cerebrospinal fluid. […] Immediately after the ivt injections, rats were returned to their home cages which contained a known amount of rat chow and observed for 60 min. The behavior was recorded in 5 mutually exclusive categories: eating, grooming, locomotion, resting and other [Blundell, Bio-grammar of Feeding: Pharmacological Manipulations and Their Interpretations. In: Cooper, S. J. (ed) Theory in Psychopharmacology, Academic Press, N.Y., Vol. I: 233 (1981)] the following measurements were derived; total food intake (g); latency to feeding response (min); duration of time spent eating (min); number of eating bouts (n); duration of eating bouts (min) and local eating rate (g/min). Local eating rate is a measure of amount of food consumed per unit time spent eating.
Although no attempt was made to quantify the water intake, the latency to drinking and amount of time spent on drinking were monitored.
The number of animals feeding and drinking after peptide treatment were compared with saline-treated rats by the Fisher exact probability test. Parameters of ingestive behavior of controls vs. peptide treated groups were analyzed by the Mann-Whitney U test. Comparisons within groups of parameters after the first and second injections were made with the Wilcoxon matched pairs - signed rank test.
(*=P<0.05; **=P<0.01, Mann-Whitney U tests; a=p<0.05; b=P<0.025; c=P<0.005, Fisher Exact Probability Test) and S=saline.

hyperphagic obese mice = conditions: cited from earlier work
normal adult male rats = experiment: Food intake after NPY and RPP by the Example 1 procedure, Example 3; assay type: in vivo, rat
[3] = intravenous administration, Konturek et al; cited from earlier work
[4] = 2 or 10 μg ivt, after second injection, P<0.02
[5] = hyperphagic obese mice, Malaisse et al
[6] = obese mice, intravenous, Zipf et al

Which results are given for “human pancreatic polypeptide (APLEPVYPGDNATPEQMAQYAADLRRYINMLTRPRY; ends and bridges not checked; UniProt P01298 30-65, looked up) [hPP, human pancreatic polypeptide, straight-chain 36 amino acid residues; from Boehringer Mannheim]”?
ingestive behavior [1]: enhanced ingestive behavior; rats that ate after the first injection ([2]; 2 μg ivt): 4/6; rats in which the drinking response preceded the feeding response ([2]; 10 μg ivt): 3/7; rats that ate after the first injection ([2]; 10 μg ivt): 5/7; amount of time spent drinking [2, 4]: only the higher does of hPP produced a similar response; number of animals drinking [2, 4]: only the higher does of hPP produced a similar response; cumulative food intake ([2]; 2 or 10 μg ivt, compared with saline treated control rats): stimulated cumulative food intake; number of rats grooming during the observation periods ([2]; ivt): Neither peptide altered the number of rats grooming

Which results are given for “bovine pancreatic polypeptide [bovine PP]”?
body weight gain (hyperphagic obese mice; [5]): suppressed body weight gain; food intake (hyperphagic obese mice; [5]): reduced food intake; food intake (hyperphagic obese mice; [6]): decrease of food intake; weight gain (hyperphagic obese mice; [6]): decrease in weight gain

With “rat pancreatic polypeptide (APLEPMYPGDYATHEQRAQYETQLRRYINTLTRPRY; ends and bridges not checked; UniProt P06303 30-65, looked up) [RPP, rat pancreatic polypeptide, member of the vertebrate pancreatic polypeptides (Pancreatic Hormone III)]” as the molecule, how does the cumulative food intake (normal adult male rats) read?
Its cumulative food intake is “enhanced cumulative food intake which is dose-dependent”.

For NC(=O)[C@@H]1CCCN1C(=O)[C@H](Cc1cnc[nH]1)NC(=O)[C@@H]1CCC(=O)N1 [TRH, p-Glu-His-Pro-NH2], which food intake [3] is on record?
The food intake was “suppressed food intake”.
